Data as given in patent US20260098008A1, “COVALENT, CHEMOGENETIC ACTIVATORS FOR K2P POTASSIUM CHANNELS AND USES THEREOF” (THE REGENTS OF THE UNIVERSITY OF CALIFORNIA, priority 2022, published 2026).
Numbering of substitutions follows the chain as printed.

Columns and labels:
K2P2.1 (TREK-1) = target: T1, K2P2.1 (TREK-1) (Mus musculus, UniProt P97438); test: Two-electrode voltage clamp (TEVC) in Xenopus oocytes; assay type: cell-based; conditions: for TREK-1 fold-activation: 20 uM, oocytes expressing TREK1; for TREK-1 activity class: Fold-activation at 20 uM in oocytes
T1 construct: expressed in transfected cells; host or cells: Xenopus laevis oocytes injected with mRNA (pGEMHE/pMO vector)
T1 sequence (P97438 1-411 isoform P97438-2): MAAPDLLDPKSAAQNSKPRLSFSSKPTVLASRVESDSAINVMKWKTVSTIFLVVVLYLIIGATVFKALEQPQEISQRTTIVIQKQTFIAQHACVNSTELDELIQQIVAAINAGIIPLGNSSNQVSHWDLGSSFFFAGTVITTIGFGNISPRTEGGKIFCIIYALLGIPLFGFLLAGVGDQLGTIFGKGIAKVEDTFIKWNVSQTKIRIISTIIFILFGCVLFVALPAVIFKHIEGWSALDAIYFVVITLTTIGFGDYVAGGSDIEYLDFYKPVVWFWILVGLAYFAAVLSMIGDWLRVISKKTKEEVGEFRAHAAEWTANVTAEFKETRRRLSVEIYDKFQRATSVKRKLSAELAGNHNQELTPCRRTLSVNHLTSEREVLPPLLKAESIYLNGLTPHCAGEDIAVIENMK
Excerpt: (§1) Mouse K2P2.1 (TREK-1) (Genbank accession number: NP_034737.2), mouse K2P10.1 (TREK-2) (NM_001316665.1), mouse K2P4.1 (TRAAK) (NM_008431.3), human K2P4.1 (TRAAK) (NM_033310.2) and mouse K2P18.1(TRESK) (NM_207261.3) were used for this study. Point mutations were introduced by site-directed mutagenesis using custom primers and confirmed by sequencing before use. For studies using Xenopus oocytes, K2P channels were subcloned into a previously reported pGEMHE/pMO vector (46). For expression in HEK293 cells, mouse K2P2.1 (TREK-1) and mutants were expressed from a previously described pIRES2-EGFP vector in HEK293 cells (46,47). K2P2.1 (TREK-1) tandems were constructed by connecting the open reading frames for the individual subunits with a linker encoding the […] (SEQ ID NO: 19) sequence. Tandems used for HEK293 cells included an N-terminal HA tag ([…] (SEQ ID NO: 20)) on the first subunit.
(§2) Xenopus laevis oocytes were harvested according to UCSF IACUC Protocol AN129690 and digested using collagenase (Worthington Biochemical Corporation, #LS004183, 0.8-1.0 mg/mL) in Ca^21-free ND96 (96 mM NaCl, 2 mM KCl, 3.8 mM MgCl2, 5 mM HEPES pH 7.4) immediately post-harvest, as previously reported (31,33). Oocytes were maintained at 18° C. in ND96 (96 mM NaCl, 2 mM KCl, 1.8 mM CaCl2, 2 mM MgCl2, 5 mM HEPES pH 7.4) supplemented with antibiotics (100 units mL^−1 penicillin, 100 μg mL^−1 streptomycin, 50 μg mL^−1 gentimycin) and used for experiments within one week of harvest.
(§3) Defolliculated stage V-VI oocytes were microinjected with 0.5-36 ng mRNA and currents were recorded within 16-48 h hours of injection.
(§4) For recordings, oocytes were impaled with borosilicate recording microelectrodes (0.4-2.0 MΩ resistance) backfilled with 3 M KCl and were subjected to constant perfusion of ND96 at a rate of 3 ml min^−1. Recording solutions containing K2P activators were prepared immediately prior to use from DMSO stocks (20-100 mM), with final DMSO concentrations of 0.1%. Currents were evoked from a −80 mV holding potential followed by a 300 ms ramp from −150 mV to +50 mV. Data were recorded using a GeneClamp 500B amplifier (MDS Analytical Technologies) controlled by pCLAMP8 software (Molecular Devices), and digitized at 1 kHz using Digidata 1332 Å digitizer (MDS Analytical Technologies). For each recording, control solution (ND96) was perfused over a single oocyte until current was stable before switching to solutions containing the test compounds at various concentrations. Representative traces and dose response plots were generated in GraphPad Prism 9.

[1] = target: T2, TREK-1^CG* (K2P2.1 (TREK-1) S131C) (Mus musculus, UniProt P97438, S146C); test: TEVC in Xenopus oocytes; assay type: cell-based; conditions: for Fold-activation (I activator/I control) / Reversibility of activation on washout: 20 μM, Xenopus oocytes; for Fold-activation (I activator/I control): 0 mV; for TREK-1 GC activity class: Fold-activation at 20 uM in oocytes
T2 construct: expressed in transfected cells; host or cells: Xenopus laevis oocytes injected with mRNA
T2 sequence (P97438 1-411 isoform P97438-2 S131C): T1 sequence (P97438 1-411 isoform P97438-2) with S131C
Excerpt: as §1, §2, §3, §4

Compound	TREK-1 fold-activation (K2P2.1 (TREK-1)) [fold]	TREK-1 activity class (K2P2.1 (TREK-1))	also measured
O=C(NCc1ccc(Cl)cc1Cl)c1ccc(N2C(=O)CCC2=O)cc1 [CAT335c]			Fold-activation (I activator/I control) (K2P2.1 (TREK-1); 20 μM, currents at 0 mV, Xenopus oocytes): 2.09 ± 0.14 fold; Fold-activation (I activator/I control) [1]: 5.0 ± 0.4 fold; Reversibility of activation on washout [1]: reversible
C=C(CCC(=O)O)C(=O)Nc1ccc(C(=O)NCc2ccc(Cl)cc2Cl)cc1 [Entry 3]		++ (2.5-5 fold)	TREK-1 GC activity class [1]: ++ (2.5-5 fold)
C#CCNC(=O)CCC(=C)C(=O)Nc1ccc(C(=O)NCc2ccc(Cl)cc2Cl)cc1 [Entry 2]		+++ (>5 fold)	TREK-1 GC activity class [1]: +++ (>5 fold)
C#CCNC(=O)CC(=C)C(=O)Nc1ccc(C(=O)NCc2ccc(Cl)cc2Cl)cc1 [Entry 5]	7.0	+++ (>5 fold)	
CS(=O)(=O)Nc1ncc(C(=O)NCc2ccc(Cl)cc2Cl)cn1 [Entry 42]	1.4	+ (1.5-2.5 fold)	
CS(=O)(=O)Nc1ccc2c(c1)CCN(Cc1ccc(Cl)cc1Cl)C2=O [Entry 45]	1.1		
CS(=O)(=O)Nc1ccc2c(c1)OCCN(Cc1ccc(Cl)cc1Cl)C2=O [Entry 43]	1.6	+ (1.5-2.5 fold)	
O=C(NCc1ccc(Cl)cc1Cl)c1ccc(N2CCS2(=O)=O)cc1 [Entry 47]			TREK-1 GC activity class [1]: + (1.5-2.5 fold)
C#CCNC(=O)CCCC1=CC(=O)N(c2ccc(C(=O)NCc3ccc(Cl)cc3Cl)cc2)C1=O [Entry 18]			TREK-1 GC activity class [1]: ++ (2.5-5 fold)
CCOC(=O)CCCC1=CC(=O)N(c2ccc(C(=O)NCc3ccc(Cl)cc3Cl)cc2)C1=O [Entry 19]			TREK-1 GC activity class [1]: ++ (2.5-5 fold)
CC1=C(C)C(=O)N(c2ccc(C(=O)NCc3ccc(Cl)cc3Cl)cc2)C1=O [CAT335b]			Fold-activation (I activator/I control) [1]: 4.9±0.6 fold; Reversibility of activation on washout [1]: partially reversible with washout; Reversibility of activation after extended incubation ([1]; 1 hour incubation, washout with buffer): remained reversible
O=C(NCc1ccc(Cl)cc1Cl)c1cccc(B(O)O)c1 [Entry 24]	1.3	+ (1.5-2.5 fold)	
CC(NC(=O)c1ccc(NC(=O)NC(=O)C(Cl)(Cl)Cl)cc1)c1ccc(Cl)cc1Cl (stereo not shown) [Entry 34]	1.2		
C=CC(=O)Nc1cccc(C(=O)NCc2ccc(Cl)cc2Cl)c1 [Entry 10]	1.2		
C#CCN(C(=O)C=C)c1ccc(C(=O)NCc2ccc(Cl)cc2Cl)cc1 [Entry 9]	1.0		
O=C(COCCOCCNC(=S)Nc1ccc2c(c1)C(=O)OC21c2ccc(O)cc2Oc2cc(O)ccc21)Nc1ccc(C(=O)NCc2ccc(Cl)cc2Cl)cc1 [Entry 46]	4	+++ (>5 fold)	
CC1=CC(=O)N(c2ccc(C(=O)NCc3ccc(Cl)cc3Cl)cc2)C1=O [CAT335a]			Fold-activation (I activator/I control) [1]: 7.4±0.7 fold; Reversibility of activation on washout [1]: irreversibly activate
CNS(=O)(=O)c1ccc(C(=O)NCc2ccc(Cl)c(Cl)c2)cc1 [Entry 37]	1.5	+ (1.5-2.5 fold)	
O=C(NCc1ccc(Cl)cc1Cl)c1ccc(CB(O)O)cc1 [Entry 25]	1.5	+ (1.5-2.5 fold)	
CC(NC(=O)c1ccc(NC(N)=O)cc1)c1ccc(Cl)cc1Cl (stereo not shown) [Entry 31]	1.3		
CC1(C)OB(Cc2ccc(C(=O)NCc3ccc(Cl)cc3Cl)cc2)OC1(C)C [Entry 26]	1.6	+ (1.5-2.5 fold)	
O=C(NCc1ccc(Cl)cc1Cl)c1cccc(CB(O)O)c1 [Entry 23]	1.0		
O=C(/C=C/C(F)(F)F)Nc1ccc(C(=O)NCc2ccc(Cl)cc2Cl)cc1 [Entry 7]	1.0		
O=C(NCc1ccc(Cl)cc1Cl)c1ccc(C(=O)N2CCS2(=O)=O)cc1 [Entry 48]		+ (1.5-2.5 fold)	TREK-1 GC activity class [1]: + (1.5-2.5 fold)
CS(=O)(=O)Nc1ccc2c(c1)CCCN(Cc1ccc(Cl)cc1Cl)C2=O [Entry 44]	1.0		
C=C1CC(=O)N(c2ccc(C(=O)NCc3ccc(Cl)cc3Cl)cc2)C1=O [Entry 17]		+ (1.5-2.5 fold)	TREK-1 GC activity class [1]: ++ (2.5-5 fold)

Second part, led by results:

TREK-1 fold-activation (K2P2.1 (TREK-1)) [fold]	TREK-1 activity class (K2P2.1 (TREK-1))	Compound	also measured
2.2	++ (2.5-5 fold)	CS(=O)(=O)Nc1cccc(C(=O)NCc2ccc(Cl)cc2Cl)c1 [Entry 33]	
4.8	+++ (>5 fold)	CS(=O)(=O)Nc1ccc(C(=O)NCc2ccc(Cl)c(Cl)c2)cc1 [Entry 38]	
3.3	++ (2.5-5 fold)	CS(=O)(=O)Nc1ccc(C(=O)NCc2ccc(Br)cc2Cl)cc1 [Entry 41]	
6.4	+++ (>5 fold)	NC(=O)Nc1ccc(C(=O)NCc2ccc(Cl)cc2Cl)cc1 [Entry 35]	
3.3	++ (2.5-5 fold)	O=C(NCc1ccc(Cl)cc1Cl)c1ccc(NC(=O)C(F)(F)F)cc1 [Entry 28]	
1.2		CC(NC(=O)c1ccc(NS(C)(=O)=O)cc1)c1ccc(Cl)cc1Cl (stereo not shown) [Entry 32]	
1.0		CN(Cc1ccc(Cl)cc1Cl)C(=O)c1ccc(NS(C)(=O)=O)cc1 [Entry 30]	
3.6	++ (2.5-5 fold)	N#CCC(=O)Nc1ccc(C(=O)NCc2ccc(Cl)cc2Cl)cc1 [Entry 8]	
3	++ (2.5-5 fold)	CNS(=O)(=O)c1ccc(C(=O)NCc2ccc(Cl)cc2Cl)cc1 [Entry 36]	
1.5	+ (1.5-2.5 fold)	CS(=O)(=O)Nc1ccc(C(=O)NCc2ccc(Cl)c(F)c2)cc1 [Entry 39]	
1.2		C/C=C/C(=O)Nc1ccc(C(=O)NCc2ccc(Cl)cc2Cl)cc1 [Entry 4]	
2.5	++ (2.5-5 fold)	O=C(NCc1ccc(Cl)cc1Cl)c1ccc(NCC2CO2)cc1 (stereo not shown) [Entry 27]	
1.1		Cc1cc(Cl)cc(Cl)c1CNC(=O)c1ccc(NS(C)(=O)=O)cc1 [Entry 40]	
1.3		C=CS(=O)(=O)Nc1ccc(C(=O)NCc2ccc(Cl)cc2Cl)cc1 [Entry 11]	
1.7 to 2.5	+ (1.5-2.5 fold)	C=C(CC(=O)O)C(=O)Nc1ccc(C(=O)NCc2ccc(Cl)cc2Cl)cc1 [Entry 6]	
	+++ (>5 fold)	C=CC(=O)Nc1ccc(C(=O)NCc2ccc(Cl)cc2Cl)cc1 [Entry 1]	TREK-1 GC activity class [1]: +++ (>5 fold)
